A value given as a limit tells only on which side of the number the result lay.

In general, Ki refers to the dissociation constant of the complex between target and ligand, obtained from inhibition or displacement. High values mean lower affinity, low ones higher affinity.

human capsaicin receptor (VR1), sequence (Q8NER1 whole entry): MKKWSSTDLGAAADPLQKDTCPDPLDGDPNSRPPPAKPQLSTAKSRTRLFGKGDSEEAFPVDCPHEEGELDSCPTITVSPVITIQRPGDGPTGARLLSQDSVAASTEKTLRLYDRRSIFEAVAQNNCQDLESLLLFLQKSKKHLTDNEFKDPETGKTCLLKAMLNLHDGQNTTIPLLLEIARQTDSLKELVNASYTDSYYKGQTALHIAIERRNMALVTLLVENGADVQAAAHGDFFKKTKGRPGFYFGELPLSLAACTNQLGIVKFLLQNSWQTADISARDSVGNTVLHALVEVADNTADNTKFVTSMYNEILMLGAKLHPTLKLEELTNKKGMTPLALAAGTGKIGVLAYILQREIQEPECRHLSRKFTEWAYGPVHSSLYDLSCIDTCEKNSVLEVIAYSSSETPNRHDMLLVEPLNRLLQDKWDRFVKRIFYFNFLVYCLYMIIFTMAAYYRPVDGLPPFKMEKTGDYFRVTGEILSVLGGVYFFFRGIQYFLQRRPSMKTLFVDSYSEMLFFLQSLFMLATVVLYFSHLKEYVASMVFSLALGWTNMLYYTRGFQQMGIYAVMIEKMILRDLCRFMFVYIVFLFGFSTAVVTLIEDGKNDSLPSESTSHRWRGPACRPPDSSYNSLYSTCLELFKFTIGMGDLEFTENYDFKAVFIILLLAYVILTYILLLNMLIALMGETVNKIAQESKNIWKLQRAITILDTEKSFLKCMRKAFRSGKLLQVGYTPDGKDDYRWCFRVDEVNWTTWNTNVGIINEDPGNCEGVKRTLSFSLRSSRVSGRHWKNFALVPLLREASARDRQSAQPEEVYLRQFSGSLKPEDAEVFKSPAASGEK

The test concerns the target human capsaicin receptor (VR1) (Homo sapiens, UniProt Q8NER1). Nature of the test: Capsaicin receptor binding assay ([3H]RTX competition, VR1-transfected HEK293 membranes).
On to `C=CCN(C)Cc1nc(Nc2ccc(C(F)(F)F)nc2)c2ccc(-c3ncccc3C(F)(F)F)cc2n1` [Compound 367, [2-[(Allyl-methyl-amino)-methyl]-7-(3-trifluoromethyl-pyridin-2-yl)-quinazolin-4-yl]-(6-trifluoromethyl-pyridin-3-yl)-amine], for which the Ki was less than 1 µM.
With `CCN(CC)Cc1nc(Nc2ccc(C(F)(F)F)nc2)c2ccc(-c3ncccc3C(F)(F)F)cc2n1` [Compound 368, [2-Diethylaminomethyl-7-(3-trifluoromethyl-pyridin-2-yl)-quinazolin-4-yl]-(6-trifluoromethyl-pyridin-3-yl)-amine], the Ki is less than 1 µM.
`CCCN(C)Cc1nc(Nc2ccc(C(F)(F)F)nc2)c2ccc(-c3ncccc3C(F)(F)F)cc2n1` [Compound 369, [2-[(Methyl-propyl-amino)-methyl]-7-(3-trifluoromethyl-pyridin-2-yl)-quinazolin-4-yl]-(6-trifluoromethyl-pyridin-3-yl)-amine] registered a Ki of less than 1 µM.
In the case of `CCCCN(C)Cc1nc(Nc2ccc(C(F)(F)F)nc2)c2ccc(-c3ncccc3C(F)(F)F)cc2n1` [Compound 370, [2-[(Butyl-methyl-amino)-methyl]-7-(3-trifluoromethyl-pyridin-2-yl)-quinazolin-4-yl]-(6-trifluoromethyl-pyridin-3-yl)-amine] it was less than 1 µM; in that of `CCN(Cc1nc(Nc2ccc(C(F)(F)F)nc2)c2ccc(-c3ncccc3C(F)(F)F)cc2n1)C(C)C` [Compound 371, [2-[(Ethyl-isopropyl-amino)-methyl]-7-(3-trifluoromethyl-pyridin-2-yl)-quinazolin-4-yl]-(6-trifluoromethyl-pyridin-3-yl)-amine], less than 1 µM; in that of `C=CCN(CC=C)Cc1nc(Nc2ccc(C(F)(F)F)nc2)c2ccc(-c3ncccc3C(F)(F)F)cc2n1` [Compound 372, [2-Diallylaminomethyl-7-(3-trifluoromethyl-pyridin-2-yl)-quinazolin-4-yl]-(6-trifluoromethyl-pyridin-3-yl)-amine], less than 1 µM.
`CCCN(CCC)Cc1nc(Nc2ccc(C(F)(F)F)nc2)c2ccc(-c3ncccc3C(F)(F)F)cc2n1` [Compound 373, [2-Dipropylaminomethyl-7-(3-trifluoromethyl-pyridin-2-yl)-quinazolin-4-yl]-(6-trifluoromethyl-pyridin-3-yl)-amine] displayed a Ki of less than 1 µM.
In the case of `CCCCN(CC)Cc1nc(Nc2ccc(C(F)(F)F)nc2)c2ccc(-c3ncccc3C(F)(F)F)cc2n1` [Compound 374, [2-[(Butyl-ethyl-amino)-methyl]-7-(3-trifluoromethyl-pyridin-2-yl)-quinazolin-4-yl]-(6-trifluoromethyl-pyridin-3-yl)-amine] it was less than 1 µM.
Compound `CCCN(Cc1nc(Nc2ccc(C(F)(F)F)nc2)c2ccc(-c3ncccc3C(F)(F)F)cc2n1)CC1CC1` [Compound 375, [2-[(Cyclopropylmethyl-propyl-amino)-methyl]-7-(3-trifluoromethyl-pyridin-2-yl)-quinazolin-4-yl]-(6-trifluoromethyl-pyridin-3-yl)-amine] came in with an inhibition constant (Ki) of less than 1 µM.
In the case of `CCCCCCN(C)Cc1nc(Nc2ccc(C(F)(F)F)nc2)c2ccc(-c3ncccc3C(F)(F)F)cc2n1` [Compound 376, [2-[(Hexyl-methyl-ainino)-methyl]-7-(3-trifluoromethyl-pyridin-2-yl)-quinazolin-4-yl]-(6-trifluoromethyl-pyridin-3-yl)-amine], the Ki was less than 1 µM.
In the case of `CCCCN(CCCC)Cc1nc(Nc2ccc(C(F)(F)F)nc2)c2ccc(-c3ncccc3C(F)(F)F)cc2n1` [Compound 377, [2-Dibutylaminomethyl-7-(3-trifluoromethyl-pyridin-2-yl)-quinazolin-4-yl]-(6-trifluoromethyl-pyridin-3-yl)-amine] it was less than 1 µM; in that of `CC(C)N(C)Cc1nc(Nc2ccc(C(F)(F)F)nc2)c2ccc(-c3ncccc3C(F)(F)F)cc2n1` [Compound 378, [2-[(Isopropyl-methyl-amino)-methyl]-7-(3-trifluoromethyl-pyridin-2-yl)-quinazolin-4-yl]-(6-trifluoromethyl-pyridin-3-yl)-amine], less than 1 µM.
